Results: patent US5591741A, “Fungicidal spiroheterocyclic derivatives” (American Cyanamid Company, priority 1993, dated 1997)

Columns and labels:
[1] = test system: Erysiphe graminis f.sp. hordei; assay: Direct protectant activity against barley powdery mildew (EGP); format: in vivo; conditions: direct protectant foliar spray, 8 days
How it was run: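 Rating reflects percentage of leaf area with sporulation compared with untreated or diluent-sprayed controls. Protectant spray was applied to single-leaf barley (cv Golden Promise) 24 h before conidia inoculation. Plants were kept at 18 °C and 40% RH throughout, with 8 days of disease development.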

Botrytis cinerea = assay: Direct protectant activity against broad bean grey mould (BCB); format: in vivo; conditions: direct protectant foliar spray, 600 ppm, 4 days
How it was run: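 Protectant foliar test: lesion coverage assessed 4 days after inoculation and rated relative to untreated or diluent-sprayed plants. Compound applied at 600 ppm to cv The Sutton leaves 24 h before 10^6 conidia/ml suspension; incubation at 22 °C in high humidity.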

Phytophthora infestans = format: in vivo; conditions: tomato, direct protectant foliar spray
Leptosphaeria nodorum = assay: Activity against wheat leafspot (LN); format: in vivo; conditions: direct therapeutic foliar spray, 600 ppm, 6-8 days
How it was run: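 Therapeutic foliar spray: compound at 600 ppm applied to single-leaf wheat (cv Norman) 24 h after inoculation with 1.5×10^6 conidia/ml. Disease control scored after 6-8 days at 22° C and 70% humidity as lesions per leaf versus untreated or diluent-sprayed controls.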

Venturia inaequalis = assay: Activity against apple scab in-vitro (VII); format: cell-based; conditions: 10 ppm, 10 days, 20° C., mycelial growth
How it was run: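 V. inaequalis propagules (5×10^4/ml, malt agar-grown) were exposed in half-strength PDB to 10 ppm final test compound delivered in acetone. Growth was scored after incubation for 10 days at 20° C, as a rating relative to untreated or diluent-sprayed controls.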

Plasmopara viticola = assay: Antisporulant activity against vine downy mildew (PVA); format: in vivo; conditions: vine leaves, antisporulant foliar spray, 600 ppm, 750 l/ha
How it was run: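 Cabernet Sauvignon vines (~8 cm) inoculated on lower leaf surfaces with 5×10^4 zoosporangia/ml, held 24 h at 21° C high humidity then 24 h glasshouse. Infected leaves sprayed underside with 600 ppm compound in 1:1 water/acetone, 0.04% Tween 20, 750 l/ha; 96 h glasshouse, 24 h humidity. Sporulating leaf area rated versus control.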

Rhizoctonia solani = assay: Activity against Rhizoctonia in-vitro (RSI); format: cell-based; conditions: 10 ppm, 10 days, 20° C., mycelial growth
How it was run: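 Compound at a final 10 ppm (acetone vehicle) in half-strength PDB, inoculated with 5×10^4 fragments/ml of shaken-culture R. solani mycelium. After incubation at 20° C for 10 days, growth scored as a rating versus untreated or diluent-treated controls.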

[2] = test system: Pseudocercosporella herpotrichoides; assay: Activity against wheat eyespot in-vitro (PHI); format: cell-based; conditions: 10 ppm, 10 days, 20° C., mycelial growth
How it was run: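 Mycelial growth was scored after 10 days at 20 °C against untreated or diluent controls. The broth was half-strength potato dextrose, holding 10 ppm test compound (from acetone) and 5×10^4 fragments/ml of the eyespot fungus.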

Alternaria solani = assay: Activity against tomato early blight (AS); format: in vivo; conditions: Table VI; tomato seedlings, contact prophylactic foliar spray, 4 days
How it was run: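 Plants were challenged with A. solani conidia (10^4 spores/ml) 24 h after a protective foliar spray of compound in 50:50 acetone/water plus 0.04% Tween 20. Held humid at 21° C for 4 days, then percent leaf area with lesions was scored as a rating relative to controls.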

[3] = test system: Erysiphe graminis f.sp. hordei; assay: Activity against barley powdery mildew, direct therapeutic (EGT); format: in vivo; conditions: direct therapeutic foliar spray, 600 ppm, up to 7 days
How it was run: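 A curative spray at 600 ppm was applied to single-leaf Golden Promise barley inoculated with powdery mildew conidia the previous day. After up to 7 days at 18 °C and 40% humidity, disease control was rated from percent leaf area sporulating relative to untreated or diluent-sprayed controls.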

Pyricularia oryzae = format: in vivo; conditions: rice seedlings, direct therapeutic foliar spray, 600 ppm, 4-5 days

CCCCc1ccc(NC2COC3(CCC(C(C)(C)C)CC3)C2)cc1 (centres unmarked) [Compound 25]
disease control rating EGP [1]: 0 (less than 50% disease control) | disease control rating BCB (Botrytis cinerea): 0 (less than 50% disease control) | disease control rating PIP (Phytophthora infestans): 0 (less than 50% disease control) | disease control rating LN (Leptosphaeria nodorum): 0 (less than 50% disease control) | disease control rating VII (Venturia inaequalis): 0 (less than 50% disease control) | disease control rating PVA (Plasmopara viticola): 0 (less than 50% disease control) | disease control rating RSI (Rhizoctonia solani): 0 (less than 50% disease control) | disease control rating PHI [2]: 0 (less than 50% disease control) | disease control rating AS (Alternaria solani): 0 (less than 50% disease control) | disease control rating EGT [3]: 0 (less than 50% disease control) | disease control rating PO (Pyricularia oryzae): 0 (less than 50% disease control)

CCCCc1ccc(CNC2COC3(CCC(C(C)(C)C)CC3)C2)cc1 (centres unmarked) [Compound 26]
disease control rating EGP [1]: 2 (greater than 80% disease control) | disease control rating BCB (Botrytis cinerea): 0 (less than 50% disease control) | disease control rating PIP (Phytophthora infestans): 0 (less than 50% disease control) | disease control rating LN (Leptosphaeria nodorum): 0 (less than 50% disease control) | disease control rating VII (Venturia inaequalis): 1 (about 50-80% disease control) | disease control rating PVA (Plasmopara viticola): 0 (less than 50% disease control) | disease control rating RSI (Rhizoctonia solani): 0 (less than 50% disease control) | disease control rating PHI [2]: 1 (about 50-80% disease control) | disease control rating AS (Alternaria solani): 1 (about 50-80% disease control) | disease control rating EGT [3]: 2 (greater than 80% disease control) | disease control rating PO (Pyricularia oryzae): 0 (less than 50% disease control)

CCCCCCNC1COC2(CCC(C(C)(C)C)CC2)C1 (centres unmarked) [Compound 27]
disease control rating EGP [1]: 2 (greater than 80% disease control) | disease control rating BCB (Botrytis cinerea): 0 (less than 50% disease control) | disease control rating PIP (Phytophthora infestans): 0 (less than 50% disease control) | disease control rating LN (Leptosphaeria nodorum): 0 (less than 50% disease control) | disease control rating VII (Venturia inaequalis): 1 (about 50-80% disease control) | disease control rating PVA (Plasmopara viticola): 0 (less than 50% disease control) | disease control rating RSI (Rhizoctonia solani): 0 (less than 50% disease control) | disease control rating PHI [2]: 1 (about 50-80% disease control) | disease control rating AS (Alternaria solani): 0 (less than 50% disease control) | disease control rating EGT [3]: 2 (greater than 80% disease control) | disease control rating PO (Pyricularia oryzae): 0 (less than 50% disease control)

Cc1ccc(CNC2COC3(CCC(C(C)(C)C)CC3)C2)cc1 (centres unmarked) [Compound 28]
disease control rating EGP [1]: 2 (greater than 80% disease control) | disease control rating BCB (Botrytis cinerea): 0 (less than 50% disease control) | disease control rating PIP (Phytophthora infestans): 0 (less than 50% disease control) | disease control rating LN (Leptosphaeria nodorum): 0 (less than 50% disease control) | disease control rating VII (Venturia inaequalis): 2 (greater than 80% disease control) | disease control rating PVA (Plasmopara viticola): 0 (less than 50% disease control) | disease control rating RSI (Rhizoctonia solani): 0 (less than 50% disease control) | disease control rating PHI [2]: 0 (less than 50% disease control) | disease control rating AS (Alternaria solani): 0 (less than 50% disease control) | disease control rating EGT [3]: 2 (greater than 80% disease control) | disease control rating PO (Pyricularia oryzae): 0 (less than 50% disease control)

CC(C)(C)C1CCC2(CC1)CC(NCc1ccc(Br)cc1)CO2 (centres unmarked) [Compound 29]
disease control rating EGP [1]: 2 (greater than 80% disease control) | disease control rating BCB (Botrytis cinerea): 0 (less than 50% disease control) | disease control rating PIP (Phytophthora infestans): 0 (less than 50% disease control) | disease control rating LN (Leptosphaeria nodorum): 0 (less than 50% disease control) | disease control rating VII (Venturia inaequalis): 2 (greater than 80% disease control) | disease control rating PVA (Plasmopara viticola): 0 (less than 50% disease control) | disease control rating RSI (Rhizoctonia solani): 0 (less than 50% disease control) | disease control rating PHI [2]: 0 (less than 50% disease control) | disease control rating AS (Alternaria solani): 0 (less than 50% disease control) | disease control rating EGT [3]: 2 (greater than 80% disease control) | disease control rating PO (Pyricularia oryzae): 0 (less than 50% disease control)

CC(C)(C)C1CCC2(CC1)CC(NCc1ccc(F)cc1)CO2 (centres unmarked) [Compound 30]
disease control rating EGP [1]: 2 (greater than 80% disease control) | disease control rating BCB (Botrytis cinerea): 0 (less than 50% disease control) | disease control rating PIP (Phytophthora infestans): 0 (less than 50% disease control) | disease control rating LN (Leptosphaeria nodorum): 0 (less than 50% disease control) | disease control rating VII (Venturia inaequalis): 2 (greater than 80% disease control) | disease control rating PVA (Plasmopara viticola): 0 (less than 50% disease control) | disease control rating RSI (Rhizoctonia solani): 0 (less than 50% disease control) | disease control rating PHI [2]: 0 (less than 50% disease control) | disease control rating AS (Alternaria solani): 0 (less than 50% disease control) | disease control rating EGT [3]: 2 (greater than 80% disease control) | disease control rating PO (Pyricularia oryzae): 0 (less than 50% disease control)

CC(C)(C)C1CCC2(CC1)CC(NCc1ccccc1)CO2 (centres unmarked) [Compound 31]
disease control rating EGP [1]: 2 (greater than 80% disease control) | disease control rating BCB (Botrytis cinerea): 0 (less than 50% disease control) | disease control rating PIP (Phytophthora infestans): 0 (less than 50% disease control) | disease control rating LN (Leptosphaeria nodorum): 0 (less than 50% disease control) | disease control rating VII (Venturia inaequalis): 1 (about 50-80% disease control) | disease control rating PVA (Plasmopara viticola): 2 (greater than 80% disease control) | disease control rating RSI (Rhizoctonia solani): 0 (less than 50% disease control) | disease control rating PHI [2]: 0 (less than 50% disease control) | disease control rating AS (Alternaria solani): 1 (about 50-80% disease control) | disease control rating EGT [3]: 2 (greater than 80% disease control) | disease control rating PO (Pyricularia oryzae): 0 (less than 50% disease control)

CCCCCCNC1COC2(CCCCC2)C1 (centres unmarked) [Compound 32]
disease control rating EGP [1]: 2 (greater than 80% disease control) | disease control rating BCB (Botrytis cinerea): 0 (less than 50% disease control) | disease control rating PIP (Phytophthora infestans): 0 (less than 50% disease control) | disease control rating LN (Leptosphaeria nodorum): 0 (less than 50% disease control) | disease control rating VII (Venturia inaequalis): 0 (less than 50% disease control) | disease control rating PVA (Plasmopara viticola): 0 (less than 50% disease control) | disease control rating RSI (Rhizoctonia solani): 0 (less than 50% disease control) | disease control rating PHI [2]: 0 (less than 50% disease control) | disease control rating AS (Alternaria solani): 0 (less than 50% disease control) | disease control rating EGT [3]: 2 (greater than 80% disease control) | disease control rating PO (Pyricularia oryzae): 0 (less than 50% disease control)

c1ccc(CNC2COC3(CCCCC3)C2)cc1 (centres unmarked) [Compound 33]
disease control rating EGP [1]: 0 (less than 50% disease control) | disease control rating BCB (Botrytis cinerea): 0 (less than 50% disease control) | disease control rating PIP (Phytophthora infestans): 0 (less than 50% disease control) | disease control rating LN (Leptosphaeria nodorum): 0 (less than 50% disease control) | disease control rating VII (Venturia inaequalis): 0 (less than 50% disease control) | disease control rating PVA (Plasmopara viticola): 0 (less than 50% disease control) | disease control rating RSI (Rhizoctonia solani): 0 (less than 50% disease control) | disease control rating PHI [2]: 0 (less than 50% disease control) | disease control rating AS (Alternaria solani): 0 (less than 50% disease control) | disease control rating EGT [3]: 1 (about 50-80% disease control) | disease control rating PO (Pyricularia oryzae): 0 (less than 50% disease control)

Clc1ccc(CNC2COC3(CCCCC3)C2)cc1 (centres unmarked) [Compound 34]
disease control rating EGP [1]: 2 (greater than 80% disease control) | disease control rating BCB (Botrytis cinerea): 0 (less than 50% disease control) | disease control rating PIP (Phytophthora infestans): 0 (less than 50% disease control) | disease control rating LN (Leptosphaeria nodorum): 0 (less than 50% disease control) | disease control rating VII (Venturia inaequalis): 0 (less than 50% disease control) | disease control rating PVA (Plasmopara viticola): 0 (less than 50% disease control) | disease control rating RSI (Rhizoctonia solani): 0 (less than 50% disease control) | disease control rating PHI [2]: 0 (less than 50% disease control) | disease control rating AS (Alternaria solani): 0 (less than 50% disease control) | disease control rating EGT [3]: 2 (greater than 80% disease control) | disease control rating PO (Pyricularia oryzae): 0 (less than 50% disease control)
